Data from patent US20210154186A1, “COMPOSITIONS AND METHODS FOR INHIBITING DIHYDROOROTATE DEHYDROGENASE” (Clear Creek Bio, Inc., priority 2018, published 2021).
Where two headings read alike, the source gives them in different places.

Tests used:
solid malignancies = details: 43 patients; patient with papillary carcinoma of the thyroid; cited from earlier work
[1] = Adverse events observed in subjects receiving brequinar intravenously once weekly; assay type: in vivo, human; details: 209 subjects, i.v. once week, median dose 1200 mg/m^2
[2] = system: acute myeloid leukemia (AML); assay: Clinical response of patients with AML to brequinar-containing composition; assay type: in vivo, human
DHODH [3] = target: DHODH (Homo sapiens, UniProt Q02127); details: for DHO plasma level threshold achieved: after a dose
[4] = 650 mg/m^2 brequinar (days 1, 8 and 15) with 75 mg/m^2 cisplatin (day 1); cited from earlier work
[5] = mouse model of AML, daily administration of high doses; cited from earlier work
[6] = system: leukemia-initiating cell activity; details: mouse models of AML; only when elevated plasma levels are maintained for extended periods; cited from earlier work
DHODH [7] = target: DHODH (Mus musculus, UniProt O35435); assay: DHO remaining in plasma of mice after brequinar 50 mg/kg (FIG. 6); details: at about 84 hours
[8] = Example 9, first patient, threshold 1,600 ng/mL
[9] = Example 10, second patient, threshold 2,900 ng/mL
[10] = Example 11, threshold 133 ng/mL

DHODH (Homo sapiens, UniProt Q02127), sequence (Q02127 whole entry): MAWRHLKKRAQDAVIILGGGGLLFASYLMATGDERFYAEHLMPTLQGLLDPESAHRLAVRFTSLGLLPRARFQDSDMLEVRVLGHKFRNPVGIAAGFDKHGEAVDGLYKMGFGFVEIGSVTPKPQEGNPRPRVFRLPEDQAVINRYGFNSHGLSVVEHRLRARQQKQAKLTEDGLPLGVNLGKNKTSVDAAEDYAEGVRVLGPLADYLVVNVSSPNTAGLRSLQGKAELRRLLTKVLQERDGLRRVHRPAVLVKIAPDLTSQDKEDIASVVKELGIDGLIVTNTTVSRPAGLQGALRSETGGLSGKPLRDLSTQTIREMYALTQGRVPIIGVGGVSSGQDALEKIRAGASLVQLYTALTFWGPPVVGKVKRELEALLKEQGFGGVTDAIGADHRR
DHODH (Mus musculus, UniProt O35435), sequence (O35435 whole entry): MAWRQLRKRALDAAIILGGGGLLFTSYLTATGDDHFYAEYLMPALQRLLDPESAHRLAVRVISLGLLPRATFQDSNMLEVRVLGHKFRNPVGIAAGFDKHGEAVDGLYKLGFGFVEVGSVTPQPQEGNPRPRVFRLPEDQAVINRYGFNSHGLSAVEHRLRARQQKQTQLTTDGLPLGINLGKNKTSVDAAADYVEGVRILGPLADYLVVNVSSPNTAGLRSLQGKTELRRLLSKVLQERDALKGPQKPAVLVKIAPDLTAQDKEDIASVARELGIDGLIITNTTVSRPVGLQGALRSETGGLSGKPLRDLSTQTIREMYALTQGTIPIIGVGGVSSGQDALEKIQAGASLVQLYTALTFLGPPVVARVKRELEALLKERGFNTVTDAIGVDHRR

## Cc1c(-c2ccc(-c3ccccc3F)cc2)nc2ccc(F)cc2c1C(=O)O [Brequinar sodium]
Solid malignancies
  tumour response observed: One mixed response

## Cc1c(-c2ccc(-c3ccccc3F)cc2)nc2ccc(F)cc2c1C(=O)O [Brequinar, 6-fluoro-2-(2′-fluoro-1,1′ biphenyl-4-yl)-3-methyl-4-quinoline carboxylic acid]
[1]
  All Body Systems: No. of Patients Experiencing the AE, 5y Max Grade 1: 36
  All Body Systems: No. of Patients Experiencing the AE, 5y Max Grade 2: 76
  All Body Systems: No. of Patients Experiencing the AE, 5y Max Grade 3: 55
  All Body Systems: No. of Patients Experiencing the AE, 5y Max Grade 4: 35
  Anemia: No. of Patients Experiencing the AE, 5y Max Grade 1: 14
  Anemia: No. of Patients Experiencing the AE, 5y Max Grade 2: 48
  Anemia: No. of Patients Experiencing the AE, 5y Max Grade 3: 23
  Anemia: No. of Patients Experiencing the AE, 5y Max Grade 4: 5
  Anorexia: No. of Patients Experiencing the AE, 5y Max Grade 1: 11
  Anorexia: No. of Patients Experiencing the AE, 5y Max Grade 2: 3
  Anorexia: No. of Patients Experiencing the AE, 5y Max Grade 3: 1
  Anorexia: No. of Patients Experiencing the AE, 5y Max Grade 4: 0
  Constipation: No. of Patients Experiencing the AE, 5y Max Grade 1: 6
  Constipation: No. of Patients Experiencing the AE, 5y Max Grade 2: 2
  Constipation: No. of Patients Experiencing the AE, 5y Max Grade 3: 1
  Constipation: No. of Patients Experiencing the AE, 5y Max Grade 4: 0
  Diarrhea: No. of Patients Experiencing the AE, 5y Max Grade 1: 43
  Diarrhea: No. of Patients Experiencing the AE, 5y Max Grade 2: 21
  Diarrhea: No. of Patients Experiencing the AE, 5y Max Grade 3: 10
  Diarrhea: No. of Patients Experiencing the AE, 5y Max Grade 4: 3
  Dyspepsia: No. of Patients Experiencing the AE, 5y Max Grade 1: 6
  Dyspepsia: No. of Patients Experiencing the AE, 5y Max Grade 2: 1
  Dyspepsia: No. of Patients Experiencing the AE, 5y Max Grade 3: 0
  Dyspepsia: No. of Patients Experiencing the AE, 5y Max Grade 4: 0
  Fatigue: No. of Patients Experiencing the AE, 5y Max Grade 1: 23
  Fatigue: No. of Patients Experiencing the AE, 5y Max Grade 2: 8
  Fatigue: No. of Patients Experiencing the AE, 5y Max Grade 3: 2
  Fatigue: No. of Patients Experiencing the AE, 5y Max Grade 4: 0
  Fever: No. of Patients Experiencing the AE, 5y Max Grade 1: 4
  Fever: No. of Patients Experiencing the AE, 5y Max Grade 2: 7
  Fever: No. of Patients Experiencing the AE, 5y Max Grade 3: 0
  Fever: No. of Patients Experiencing the AE, 5y Max Grade 4: 0
  Granulocytopenia: No. of Patients Experiencing the AE, 5y Max Grade 1: 16
  Granulocytopenia: No. of Patients Experiencing the AE, 5y Max Grade 2: 17
  Granulocytopenia: No. of Patients Experiencing the AE, 5y Max Grade 3: 3
  Granulocytopenia: No. of Patients Experiencing the AE, 5y Max Grade 4: 5
  Headache: No. of Patients Experiencing the AE, 5y Max Grade 1: 4
  Headache: No. of Patients Experiencing the AE, 5y Max Grade 2: 3
  Headache: No. of Patients Experiencing the AE, 5y Max Grade 3: 0
  Headache: No. of Patients Experiencing the AE, 5y Max Grade 4: 0
  Infection: No. of Patients Experiencing the AE, 5y Max Grade 1: 4
  Infection: No. of Patients Experiencing the AE, 5y Max Grade 2: 3
  Infection: No. of Patients Experiencing the AE, 5y Max Grade 3: 0
  Infection: No. of Patients Experiencing the AE, 5y Max Grade 4: 0
  Leukopenia: No. of Patients Experiencing the AE, 5y Max Grade 1: 26
  Leukopenia: No. of Patients Experiencing the AE, 5y Max Grade 2: 31
  Leukopenia: No. of Patients Experiencing the AE, 5y Max Grade 3: 10
  Leukopenia: No. of Patients Experiencing the AE, 5y Max Grade 4: 2
  Mucositis: No. of Patients Experiencing the AE, 5y Max Grade 1: 23
  Mucositis: No. of Patients Experiencing the AE, 5y Max Grade 2: 15
  Mucositis: No. of Patients Experiencing the AE, 5y Max Grade 3: 11
  Mucositis: No. of Patients Experiencing the AE, 5y Max Grade 4: 3
  Nausea: No. of Patients Experiencing the AE, 5y Max Grade 1: 59
  Nausea: No. of Patients Experiencing the AE, 5y Max Grade 2: 19
  Nausea: No. of Patients Experiencing the AE, 5y Max Grade 3: 12
  Nausea: No. of Patients Experiencing the AE, 5y Max Grade 4: 1
  Pain Inject Site: No. of Patients Experiencing the AE, 5y Max Grade 1: 24
  Pain Inject Site: No. of Patients Experiencing the AE, 5y Max Grade 2: 0
  Pain Inject Site: No. of Patients Experiencing the AE, 5y Max Grade 3: 0
  Pain Inject Site: No. of Patients Experiencing the AE, 5y Max Grade 4: 0
  Pain, Abdominal: No. of Patients Experiencing the AE, 5y Max Grade 1: 4
  Pain, Abdominal: No. of Patients Experiencing the AE, 5y Max Grade 2: 3
  Pain, Abdominal: No. of Patients Experiencing the AE, 5y Max Grade 3: 1
  Pain, Abdominal: No. of Patients Experiencing the AE, 5y Max Grade 4: 0
  Rash: No. of Patients Experiencing the AE, 5y Max Grade 1: 26
  Rash: No. of Patients Experiencing the AE, 5y Max Grade 2: 15
  Rash: No. of Patients Experiencing the AE, 5y Max Grade 3: 9
  Rash: No. of Patients Experiencing the AE, 5y Max Grade 4: 3
  Somnolence: No. of Patients Experiencing the AE, 5y Max Grade 1: 7
  Somnolence: No. of Patients Experiencing the AE, 5y Max Grade 2: 2
  Somnolence: No. of Patients Experiencing the AE, 5y Max Grade 3: 0
  Somnolence: No. of Patients Experiencing the AE, 5y Max Grade 4: 0
  Stomatitis: No. of Patients Experiencing the AE, 5y Max Grade 1: 32
  Stomatitis: No. of Patients Experiencing the AE, 5y Max Grade 2: 20
  Stomatitis: No. of Patients Experiencing the AE, 5y Max Grade 3: 7
  Stomatitis: No. of Patients Experiencing the AE, 5y Max Grade 4: 1
  Thrombocytopenia: No. of Patients Experiencing the AE, 5y Max Grade 1: 26
  Thrombocytopenia: No. of Patients Experiencing the AE, 5y Max Grade 2: 31
  Thrombocytopenia: No. of Patients Experiencing the AE, 5y Max Grade 3: 16
  Thrombocytopenia: No. of Patients Experiencing the AE, 5y Max Grade 4: 21
  Vomit: No. of Patients Experiencing the AE, 5y Max Grade 1: 32
  Vomit: No. of Patients Experiencing the AE, 5y Max Grade 2: 24
  Vomit: No. of Patients Experiencing the AE, 5y Max Grade 3: 12
  Vomit: No. of Patients Experiencing the AE, 5y Max Grade 4: 5
[2]; Example 9, first patient, […], improvement of extramedullary hematopoiesis, shift to more differentiation in peripheral blasts
  clinical response: positive response
[2]; Example 10, second patient, lowering of peripheral blasts, increase in absolute neutrophil count, greater differentiation of peripheral blasts
  clinical response: positive response
[2]; Example 11, indicated by a trend towards differentiation of peripheral blasts
  clinical response: positive response
DHODH [3]; Example 9, first patient with AML
  DHO plasma level threshold achieved: 1,600 ng/mL
DHODH [3]; [8]
  time remained above the DHO threshold: 84 h
  time to achieve the DHO plasma level threshold: less than 24 hours
DHODH [3]; Example 10, second patient with AML
  DHO plasma level threshold achieved: 2,900 ng/mL
DHODH [3]; [9]
  time remained above the DHO threshold: 84 h
  time to achieve the DHO plasma level threshold: < 24 h
DHODH [3]; Example 11, patient with AML
  DHO plasma level threshold achieved: 133 ng/mL
DHODH [3]; [10]
  time remained above the DHO threshold: 84 h
  time to achieve the DHO plasma level threshold: less than 2 hours
[4]
  effect of the combination on individual drug pharmacokinetic parameters: without significant modifications of individual drug pharmacokinetic parameters
[5]
  toxic effects: weight loss, anemia, and thrombocytopenia
[6]
  effect on leukemia-initiating cell activity: decreases leukemia-initiating cell activity
DHODH [7]
  concentration of DHO remaining in the plasma: about 100 ng/mL
